PubChem BioAssay AID248 (DTP/NCI, 2004)
Values joined by “and” are separate entries in the source; they are usually repeats but may differ in a detail not shown here. Identical values can stand only once. Toxic doses and inconclusive results are not listed.

System: L1210 leukemia ip in BDF1 mice, survival T/C
Experiment: NCI In Vivo Anticancer Drug Screen. Data for tumor model L1210 Leukemia (intraperitoneal) in B6D2F1 (BDF1) mice
Settings: endpoint: mean survival time, higher = longer survival
How it was run: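 Antitumor effect is assessed in tumor-bearing animals. Survival in the compound arm is compared with a vehicle-dosed control arm and expressed as their quotient.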

[1] = dose: 100.0 mg/kg/injection, schedule: Q01DX001 (ip), vehicle: Klucel (hydroxypropylcellulose) (HPC)
[2] = dose: 100.0 mg/kg/injection, schedule: Q01DX009 (ip), vehicle: Klucel (hydroxypropylcellulose) (HPC)
[3] = dose: 100.0 mg/kg/injection, schedule: Q04DX003 (ip), vehicle: Klucel (hydroxypropylcellulose) (HPC)
[4] = dose: 200.0 mg/kg/injection, schedule: Q01DX001 (ip), vehicle: Klucel (hydroxypropylcellulose) (HPC)
[5] = dose: 200.0 mg/kg/injection, schedule: Q01DX009 (ip), vehicle: Klucel (hydroxypropylcellulose) (HPC)
[6] = dose: 200.0 mg/kg/injection, schedule: Q04DX003 (ip), vehicle: Klucel (hydroxypropylcellulose) (HPC)
[7] = dose: 400.0 mg/kg/injection, schedule: Q01DX001 (ip), vehicle: Klucel (hydroxypropylcellulose) (HPC)
[8] = dose: 400.0 mg/kg/injection, schedule: Q01DX009 (ip), vehicle: Klucel (hydroxypropylcellulose) (HPC)
[9] = dose: 400.0 mg/kg/injection, schedule: Q04DX003 (ip), vehicle: Klucel (hydroxypropylcellulose) (HPC)
[10] = dose: 100.0 mg/kg/injection, schedule: Q01DX009 (ip), vehicle: saline
[11] = dose: 100.0 mg/kg/injection, schedule: Q04DX003 (ip), vehicle: saline with Tween-80
[12] = dose: 200.0 mg/kg/injection, schedule: Q04DX003 (ip), vehicle: saline with Tween-80

O=C1CN=C(c2ccccn2)c2cc(Br)ccc2N1
T/C (dose: 3.1 mg/kg/injection, schedule: Q03HX024 (ip), vehicle: Klucel (hydroxypropylcellulose) (HPC)): 98 % of control
T/C (dose: 6.2 mg/kg/injection, schedule: Q03HX024 (ip), vehicle: Klucel (hydroxypropylcellulose) (HPC)): 100 % of control
T/C (dose: 12.5 mg/kg/injection, schedule: Q03HX024 (ip), vehicle: Klucel (hydroxypropylcellulose) (HPC)): 98 % of control
T/C (dose: 25.0 mg/kg/injection, schedule: Q03HX024 (ip), vehicle: Klucel (hydroxypropylcellulose) (HPC)): 94 % of control
T/C (dose: 50.0 mg/kg/injection, schedule: Q03HX024 (ip), vehicle: Klucel (hydroxypropylcellulose) (HPC)): 97 % of control
T/C [1]: 96 % of control
T/C [2]: 94 % of control
T/C (dose: 100.0 mg/kg/injection, schedule: Q04DX002 (ip), vehicle: Klucel (hydroxypropylcellulose) (HPC)): 101 % of control and 109 % of control
T/C [3]: 101 % of control
T/C (dose: 119.0 mg/kg/injection, schedule: Q01DX001 (ip), vehicle: Klucel (hydroxypropylcellulose) (HPC)): 98 % of control
T/C (dose: 178.0 mg/kg/injection, schedule: Q01DX001 (ip), vehicle: Klucel (hydroxypropylcellulose) (HPC)): 98 % of control
T/C [4]: 93 % of control
T/C [5]: 106 % of control
T/C (dose: 200.0 mg/kg/injection, schedule: Q04DX002 (ip), vehicle: Klucel (hydroxypropylcellulose) (HPC)): 93 % of control and 98 % of control
T/C [6]: 97 % of control
T/C (dose: 266.0 mg/kg/injection, schedule: Q01DX001 (ip), vehicle: Klucel (hydroxypropylcellulose) (HPC)): 89 % of control
T/C [7]: 96 % of control
T/C [8]: 96 % of control
T/C (dose: 400.0 mg/kg/injection, schedule: Q04DX002 (ip), vehicle: Klucel (hydroxypropylcellulose) (HPC)): 92 % of control
T/C [9]: 101 % of control
T/C (dose: 600.0 mg/kg/injection, schedule: Q01DX001 (ip), vehicle: Klucel (hydroxypropylcellulose) (HPC)): 106 % of control

O=C(Nc1ccc(C2=NCCN2)cc1)Nc1cccc(NC(=O)Nc2cccc(C3=NCCN3)c2)c1
T/C (dose: 1.0 mg/kg/injection, schedule: Q01DX Z (ip), vehicle: carboxymethylcellulose (CMC)): 120 % of control and 90 % of control
T/C (dose: 2.0 mg/kg/injection, schedule: Q01DX Z (ip), vehicle: carboxymethylcellulose (CMC)): 101 % of control and 107 % of control
T/C (dose: 4.0 mg/kg/injection, schedule: Q01DX Z (ip), vehicle: carboxymethylcellulose (CMC)): 113 % of control
T/C (dose: 8.0 mg/kg/injection, schedule: Q01DX Z (ip), vehicle: carboxymethylcellulose (CMC)): 121 % of control and 244 % of control
T/C (dose: 8.0 mg/kg/injection, schedule: Q01DX Z (ip), vehicle: water): 286 % of control
T/C (dose: 16.0 mg/kg/injection, schedule: Q01DX Z (ip), vehicle: carboxymethylcellulose (CMC)): 332 % of control
T/C (dose: 16.0 mg/kg/injection, schedule: Q01DX Z (ip), vehicle: water): 172 % of control
T/C (dose: 31.0 mg/kg/injection, schedule: Q01DX Z (oral), vehicle: water): 104 % of control
T/C (dose: 62.0 mg/kg/injection, schedule: Q01DX Z (oral), vehicle: water): 112 % of control
T/C (dose: 125.0 mg/kg/injection, schedule: Q01DX Z (oral), vehicle: water): 104 % of control
T/C (dose: 250.0 mg/kg/injection, schedule: Q01DX Z (oral), vehicle: water): 102 % of control

O=c1[nH]c2ccccc2n1C1CCN(CCCC(c2ccc(F)cc2)c2ccc(F)cc2)CC1
T/C (dose: 12.5 mg/kg/injection, schedule: Q01DX009 (ip), vehicle: Klucel (hydroxypropylcellulose) (HPC)): 100 % of control
T/C (dose: 25.0 mg/kg/injection, schedule: Q01DX009 (ip), vehicle: Klucel (hydroxypropylcellulose) (HPC)): 120 % of control
T/C (dose: 25.0 mg/kg/injection, schedule: Q04DX003 (ip), vehicle: Klucel (hydroxypropylcellulose) (HPC)): 88 % of control
T/C (dose: 50.0 mg/kg/injection, schedule: Q04DX003 (ip), vehicle: Klucel (hydroxypropylcellulose) (HPC)): 104 % of control
T/C [2]: 88 % of control
T/C [3]: 104 % of control
T/C [6]: 109 % of control
T/C [9]: 95 % of control

COc1ccccc1-n1c(O)c(N=Nc2ccccc2C)c(=O)n(-c2ccccc2)c1=S
T/C [1]: 110 % of control
T/C [4]: 96 % of control
T/C [7]: 96 % of control

CC(=O)N(C=C(C#N)C#N)c1ccccc1
T/C [1]: 104 % of control
T/C [3]: 108 % of control
T/C [4]: 106 % of control
T/C [6]: 96 % of control
T/C [9]: 116 % of control

C#CCN(C)C(=O)Nc1ccccc1
T/C (dose: 100.0 mg/kg/injection, schedule: Q04DX002 (ip), vehicle: saline with Tween-80): 91 % of control
T/C (dose: 200.0 mg/kg/injection, schedule: Q04DX002 (ip), vehicle: saline with Tween-80): 91 % of control
T/C (dose: 400.0 mg/kg/injection, schedule: Q04DX002 (ip), vehicle: saline with Tween-80): 113 % of control

CC(CNc1ccc(Cl)cc1)(CNc1ccc(Cl)cc1)[N+](=O)[O-]
T/C (dose: 100.0 mg/kg/injection, schedule: Q04DX003 (ip), vehicle: saline): 92 % of control
T/C (dose: 200.0 mg/kg/injection, schedule: Q04DX003 (ip), vehicle: saline): 88 % of control
T/C (dose: 400.0 mg/kg/injection, schedule: Q04DX003 (ip), vehicle: saline): 92 % of control

Cc1ccc(-n2c(=O)c(N=Nc3ccc(Cl)cc3)c(O)n(-c3ccccc3C)c2=S)cc1
T/C [1]: 97 % of control
T/C [4]: 87 % of control
T/C [7]: 92 % of control

CCC(C)C(CCN1CCCC1)(CNC(=O)CN(CC)CC)c1cccc2ccccc12 (centres undefined)
T/C [10]: 95 % of control

Cc1c(Cl)cccc1NC(=O)c1ccccc1
T/C [2]: 93 % of control
T/C [3]: 91 % of control
T/C [5]: 96 % of control
T/C [6]: 106 % of control
T/C [8]: 100 % of control
T/C [9]: 98 % of control

C/C=C(/C(=O)c1ccc(-c2ccccc2)cc1)c1ccccc1
T/C (dose: 100.0 mg/kg/injection, schedule: Q01DX009 (ip), vehicle: saline with Tween-80): 105 % of control
T/C [11]: 95 % of control
T/C (dose: 200.0 mg/kg/injection, schedule: Q01DX009 (ip), vehicle: saline with Tween-80): 94 % of control
T/C [12]: 89 % of control
T/C (dose: 400.0 mg/kg/injection, schedule: Q01DX009 (ip), vehicle: saline with Tween-80): 90 % of control
T/C (dose: 400.0 mg/kg/injection, schedule: Q04DX003 (ip), vehicle: saline with Tween-80): 94 % of control

CSc1ccccc1C(=O)NNS(=O)(=O)c1ccc(C)cc1
T/C [2]: 101 % of control
T/C [3]: 95 % of control
T/C [5]: 103 % of control
T/C [6]: 97 % of control
T/C [8]: 95 % of control
T/C [9]: 97 % of control

N#CC12C(=O)C3C4C=CC(C4)C3C(=O)C1(C#N)C1C=CC2C1 (centres undefined)
T/C [11]: 94 % of control
T/C [12]: 92 % of control

CC(=O)[C@H]1CC[C@H]2[C@@H]3C[C@H](F)C4=CC(=O)CC[C@]4(C)[C@@]3(F)[C@@H](O)C[C@]12C
T/C (dose: 50.0 mg/kg/injection, schedule: Q01DX009 (sc), vehicle: steriod suspending solution): 124 % of control
T/C (dose: 100.0 mg/kg/injection, schedule: Q01DX009 (sc), vehicle: steriod suspending solution): 101 % of control
T/C (dose: 100.0 mg/kg/injection, schedule: Q04DX003 (sc), vehicle: steriod suspending solution): 97 % of control
T/C (dose: 200.0 mg/kg/injection, schedule: Q01DX009 (sc), vehicle: steriod suspending solution): 104 % of control
T/C (dose: 200.0 mg/kg/injection, schedule: Q04DX003 (sc), vehicle: steriod suspending solution): 105 % of control
T/C (dose: 400.0 mg/kg/injection, schedule: Q04DX003 (sc), vehicle: steriod suspending solution): 103 % of control

CCCCCCCCNC(=O)C1OC(n2cnc3c(N)ncnc32)C(O)C1O (centres undefined)
T/C (dose: 100.0 mg/kg/injection, schedule: Q01DX005 (ip), vehicle: saline with Tween-80): 86 % of control
T/C [10]: 104 % of control
T/C (dose: 200.0 mg/kg/injection, schedule: Q01DX005 (ip), vehicle: saline with Tween-80): 105 % of control
T/C (dose: 200.0 mg/kg/injection, schedule: Q01DX009 (ip), vehicle: saline): 91 % of control
T/C (dose: 400.0 mg/kg/injection, schedule: Q01DX009 (ip), vehicle: saline): 110 % of control

CCCCCCCCc1ccc(C(=O)O)cc1
T/C [3]: 105 % of control
T/C [6]: 101 % of control
T/C [9]: 91 % of control

COc1ccc2c(c1O)[C@]13CCN(C)[C@H](C2)[C@@H]1CCC(=O)C3
T/C (dose: 75.0 mg/kg/injection, schedule: Q01DX001 (ip), vehicle: saline): 101 % of control
T/C (dose: 150.0 mg/kg/injection, schedule: Q01DX001 (ip), vehicle: saline): 106 % of control
